Where “and” joins values, the source holds several entries; their conditions need not be identical. Identical values can stand only once.
Columns and labels:
[1] = system: HepG2 cells; assay: Estimation of cellular respiration by measuring cellular ATP levels in HepG2 cells; format: cell-based, Human; settings: for Cellular ATP / Percentage enhancement of cellular ATP levels over control: HepG2, 2 hours treatment
Procedure: The test substances were evaluated for their in vitro effect on cellular energy by measuring cellular ATP levels in human Hepatocytes (HepG2) cell line.
HepG2 cells were trypsinized from stock culture flasks and the cell count was adjusted to 1.0×10^5 cells/ml to obtain a cell suspension that was seeded into a 96-well plate. […] After 2 hours of treatment, the plate was washed with phosphate buffer saline. The cellular ATP levels determination was performed according to the instructions given in the kit manual (SIGMA, #MAK190). At the end of the experiment, the optical density was read at 570 nm using microplate reader. From the absorbance values, the cellular ATP levels were estimated using kit protocol and the concentration of cellular ATP in treated groups were determined in comparison to the control groups.

[2] = system: HepG2 (Human Hepatocyte) cell line; assay: In vitro cytotoxicity by MTT colorimetric assay on HepG2 cell line; format: cell-based; settings: for % Inhibition: 72 hours incubation
Procedure: The in vitro cytotoxicity study was performed on HepG2 (Human Hepatocyte) cell line to find a nontoxic concentration of the test substances by MTT colorimetric assay and evaluate their potential on cellular respiration by measuring cellular ATP levels.
About 10 mg of all the test substances (as indicated in Table 1) were separately dissolved with 100 μl of Dimethyl sulfoxide (DMSO) and volume was made up with Dulbecco's Modified Eagle Medium-High glucose (DMEM-HG) supplemented with 2% inactivated Fetal Bovine Serum (FBS) to obtain a stock solution of 1 mg/ml concentration and sterilized by 0.22p, syringe filtration. Serial two-fold dilutions were prepared from the stock for carrying out further studies.
The monolayer cell culture was trypsinized and the cell count was adjusted to 1.0×10^5 cells/ml using Ham's F12 medium containing 10% FBS to obtain a cell suspension. To each well of the 96 well microtitre plate, 0.1 ml of the diluted cell suspension was added. After 24 hours, when a partial monolayer was formed, the supernatant was flicked off, the monolayer was washed once with medium and 100 μl of different concentrations of test substances were added. The plate was then incubated at 37° C. for 72 hours in a 5% CO2 atmosphere, and microscopic examination was carried out and observations were noted every 24 hours.
After 72 hours of incubation, the drug solutions in the wells were discarded and 50 μl of MTT in PBS was added to each well. The plate was gently shaken and incubated for 3 hr at 37° C. in a 5% CO2 atmosphere. The supernatant was removed and 100 μl of 2-propanol was added and the plate was gently shaken to solubilize the formed formazan. The absorbance was measured using a microplate reader at a wavelength of 540 nm. The percentage growth inhibition was calculated using the standard formula. The concentration of test substances needed to inhibit the growth of the cell by 50% i.e., CTC50 values were generated from the dose-response curves.

[3] = substance alone (IMP 500 μg/ml, NMN 250 μg/ml, IMP + NMN 500 μg/ml, H2O2 20 μM)
[4] = along with H2O2 (20 μM) (IMP 500 μg/ml, NMN 250 μg/ml, IMP + NMN 500 + 250 μg/ml)

| Compound | Cellular ATP [1, 3] [nmol] | % Inhibition ([2]; test conc. 62.5 μg/ml) [%] | % Inhibition ([2]; test conc. 125 μg/ml) [%] | % Inhibition ([2]; test conc. 250 μg/ml) [%] | % Inhibition ([2]; test conc. 500 μg/ml) [%] | % Inhibition ([2]; test conc. 1000 μg/ml) [%] | CTC 50 ([2]; 72 hours, concentration needed to inhibit cell growth by 50%) | Cellular ATP [1, 4] [nmol] | Percentage enhancement of cellular ATP levels over control [1, 4] [%] | Percentage enhancement of cellular ATP levels over control ([1]; substance alone (IMP 500 μg/ml, NMN 250 μg/ml, IMP + NMN 2:1 500 μg/ml), over hydrogen peroxide control) [%] | Percentage enhancement of cellular ATP levels over control ([1]; substance alone (IMP 500 μg/ml, NMN 250 μg/ml, IMP + NMN 2:1 500 μg/ml), over hydrogen peroxide control, listed as G4) [%] | cellular ATP levels (in words) ([1]; HepG2, in combination with Hydrogen peroxide (20 μM)) |
| --- | --- | --- | --- | --- | --- | --- | --- | --- | --- | --- | --- | --- |
| Hydrogen Peroxide [Composition G2] | 0.86 ± 0.02 |  |  |  |  |  |  |  |  |  |  |  |
| NC(=O)c1ccc[n+]([C@@H]2O[C@H](COP(=O)([O-])O)[C@@H](O)[C@H]2O)c1 [NMN, β-Nicotinamide mononucleotide] | 4.43 ± 0.23 | 2.26 ± 1.49 | 21.59 ± 1.89 | 30.51 ± 0.38 | 59.95 ± 1.78 | 76.59 ± 0.54 | 415 ± 8.99 µg/mL and 415.92 ± 8.99 µg/mL | 8.28 ± 0.65 | 29.01 ± 4.25 | 13.97±1.25 | 13.97 ± 1.25 | increased the cellular ATP levels significantly |

— US11491175B2, “Synergistic bioactive compositions for enhancing cellular energy” (CELAGENEX RESEARCH (INDIA) PVT. LTD., priority 2019, dated 2022)
